Measurements from ChEMBL document CHEMBL1759931, “Potent and selective adenosine A(2A) receptor antagonists: [1,2,4]-triazolo[4,3-c]pyrimidin-3-ones” (Bioorg Med Chem Lett, 2011).

Experiments:
Adenosine receptor A2a = Adenosine receptor A2a (Homo sapiens, UniProt P29274); test: Antagonist activity against human adenosine A2A receptor; format: functional
Homo sapiens = species: Homo sapiens; test: Ratio of Ki for human adenosine A1 receptor to Ki for human adenosine A2A receptor
[1] = Solubility of the compound at pH 7.4; format: physicochemical; conditions: buffer
Rattus norvegicus [2] = test: Inhibition of haloperidol -induced catalepsy in rat at 10 mg/kg, po measured after 1 hr; format: functional
Rattus norvegicus [3] = test: Inhibition of haloperidol -induced catalepsy in rat at 10 mg/kg, po measured after 4 hrs; format: functional
[4] = Drug uptake in rat brain at 3 mg/kg measured after 6 hrs; format: ADME, organism-based; parameters: dose 3 mg/kg; conditions: read-out: Drug uptake
Rattus norvegicus [5] = test: Intrinsic clearance in rat at 3 mg/kg; format: ADME, organism-based; parameters: dose 3 mg/kg; conditions: in vivo
[6] = AUC in rat at 3 mg/kg by LC-MS analysis; format: ADME, organism-based; parameters: dose 3 mg/kg; conditions: plasma

Sequence of Adenosine receptor A2a (P29274 whole entry): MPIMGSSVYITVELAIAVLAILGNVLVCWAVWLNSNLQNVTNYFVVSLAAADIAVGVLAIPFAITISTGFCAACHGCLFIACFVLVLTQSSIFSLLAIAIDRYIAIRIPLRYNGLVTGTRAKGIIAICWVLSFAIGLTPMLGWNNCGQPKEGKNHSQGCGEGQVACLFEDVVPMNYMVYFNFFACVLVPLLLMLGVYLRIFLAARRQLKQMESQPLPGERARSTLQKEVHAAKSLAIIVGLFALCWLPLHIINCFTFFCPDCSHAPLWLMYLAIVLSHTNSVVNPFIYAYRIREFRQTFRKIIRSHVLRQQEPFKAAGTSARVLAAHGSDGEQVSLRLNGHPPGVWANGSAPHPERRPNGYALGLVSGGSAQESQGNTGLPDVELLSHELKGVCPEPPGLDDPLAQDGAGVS

For `Nc1nc2c(cnn2CCN2CCN(c3cnccn3)CC2)c2nn(Cc3cccc(Cl)c3)c(=O)n12`, the Ki (Adenosine receptor A2a) was 0.0129 µM, the Ratio Ki (Homo sapiens) was 109 and the solubility ([1]; read-out: solubility) was 25 µM.

Work on `C=Cn1ncc2c1nc(N)n1c(=O)n(CC3CC3)nc21` yielded a Ki (Adenosine receptor A2a) of 0.0274 µM, a Ratio Ki (Homo sapiens) of 55 and a solubility ([1]; read-out: solubility) of 175 µM.

`Nc1nc2c(c3nn(Cc4ccccc4)c(=O)n13)CCc1ccccc1-2` showed a Ki (Adenosine receptor A2a) of 0.0005 µM, a Ratio Ki (Homo sapiens) of 43 and an inhibition in vivo at 10 mg/kg (Rattus norvegicus [2]) of 0%. It also gave an inhibition in vivo at 10 mg/kg (Rattus norvegicus [3]) of 18%, a concentration at 6 h [4] of 10 ng/g and a CL (Rattus norvegicus [5]) of 14.7 mL/min/kg.

With `CS(=O)(=O)N1CCN(CCn2ncc3c2nc(N)n2c(=O)n(Cc4ccccc4)nc32)CC1` the Ki (Adenosine receptor A2a) was 0.0089 µM, the Ratio Ki (Homo sapiens) was 157 and the solubility ([1]; read-out: solubility) was 75 µM.

With `COCCOc1ccc(N2CCN(CCn3ncc4c3nc(N)n3nc(-c5ccco5)nc43)CC2)cc1` [PRELADENANT] the inhibition in vivo at 10 mg/kg (Rattus norvegicus [2]) was 75%, the inhibition in vivo at 10 mg/kg (Rattus norvegicus [3]) was 80% and the solubility [1] was less than 0.01 µg/mL.

Work on `Nc1nc2c(cnn2CCN2CCN(c3ccc(F)cc3F)CC2)c2nn(Cc3cccc(Cl)c3)c(=O)n12` yielded a Ki (Adenosine receptor A2a) of 0.0234 µM and a Ratio Ki (Homo sapiens) of 60.

In the case of `CN(C)CCn1ncc2c1nc(N)n1c(=O)n(Cc3cccc(Cl)c3)nc21`, the Ki (Adenosine receptor A2a) is reported as 0.0052 µM, the Ratio Ki (Homo sapiens) is reported as 269 and the inhibition in vivo at 10 mg/kg (Rattus norvegicus [2]) is reported as 13%. For the same molecule, the inhibition in vivo at 10 mg/kg (Rattus norvegicus [3]) was 20%, the AUC [6] was 0.398 µM·h and the concentration at 6 h [4] was 39 ng/g. For the same molecule, the CL (Rattus norvegicus [5]) was 37.3 mL/min/kg and the solubility ([1]; read-out: solubility) was 18 µM.

In the case of `Nc1nc2c(cnn2CCN2CCOCC2)c2nn(CC3CC3)c(=O)n12`, the Ki (Adenosine receptor A2a) is reported as 0.381 µM, the Ratio Ki (Homo sapiens) is reported as 4 and the solubility ([1]; read-out: solubility) is reported as greater than 250 µM.

In the case of `Nc1nc2c(cnn2CCN2CCN(c3cnccn3)CC2)c2nn(Cc3ccccc3)c(=O)n12`, the Ki (Adenosine receptor A2a) is reported as 0.0127 µM, the Ratio Ki (Homo sapiens) is reported as 110 and the solubility ([1]; read-out: solubility) is reported as 50 µM.

Work on `Nc1nc(-c2ccccc2)cc2nc(-c3ccco3)nn12` yielded a Ki (Adenosine receptor A2a) of 0.007 µM and a Ratio Ki (Homo sapiens) of 3.

Work on `Nc1nc(-c2cccc(CO)c2)cc2nn(Cc3ccccc3)c(=O)n12` yielded a Ki (Adenosine receptor A2a) of 1.7 µM, a Ratio Ki (Homo sapiens) of 1 and a solubility ([1]; read-out: solubility) of 100 µM.

Work on `Nc1nc2c(cnn2CCN2CCOCC2)c2nn(Cc3ccccc3)c(=O)n12` yielded a Ki (Adenosine receptor A2a) of 0.009 µM, a Ratio Ki (Homo sapiens) of 156 and a solubility ([1]; read-out: solubility) of 175 µM.

`Nc1nc2c(cnn2CCN2CCC(N3CCOCC3)CC2)c2nn(Cc3ccccc3)c(=O)n12` showed a Ki (Adenosine receptor A2a) of 0.0284 µM and a Ratio Ki (Homo sapiens) of 53.

`COCCOc1ccc(N2CCN(CCn3ncc4c3nc(N)n3c(=O)n(Cc5cccc(Cl)c5)nc43)CC2)c(F)c1` showed a Ki (Adenosine receptor A2a) of 0.0156 µM, a Ratio Ki (Homo sapiens) of 90 and a solubility ([1]; read-out: solubility) of 12 µM.

`C=Cn1ncc2c1nc(N)n1c(=O)n(Cc3cccc(Cl)c3)nc21` gave a Ki (Adenosine receptor A2a) of 0.0004 µM, a Ratio Ki (Homo sapiens) of 356 and an inhibition in vivo at 10 mg/kg (Rattus norvegicus [2]) of 13%. For the same molecule, the inhibition in vivo at 10 mg/kg (Rattus norvegicus [3]) was 15%, the CL (Rattus norvegicus [5]) was 27.7 mL/min/kg and the solubility ([1]; read-out: solubility) was 12 µM.

`Nc1nc2c(cnn2CCN2CCC(N3CCOCC3)CC2)c2nn(Cc3cccc(Cl)c3)c(=O)n12` showed a Ki (Adenosine receptor A2a) of 0.0067 µM and a Ratio Ki (Homo sapiens) of 224.

In the case of `COCCOc1ccc(N2CCN(CCn3ncc4c3nc(N)n3c(=O)n(Cc5ccccc5)nc43)CC2)c(F)c1`, the Ki (Adenosine receptor A2a) is reported as greater than 1.3 µM and the solubility ([1]; read-out: solubility) is reported as 12 µM.

With `C=Cn1ncc2c1nc(N)n1c(=O)n(Cc3ccccc3)nc21` the Ki (Adenosine receptor A2a) was 0.0003 µM, the Ratio Ki (Homo sapiens) was 1120 and the inhibition in vivo at 10 mg/kg (Rattus norvegicus [2]) was 0%. It also gave an inhibition in vivo at 10 mg/kg (Rattus norvegicus [3]) of 8%, an AUC [6] of 0.248 µM·h and a concentration at 6 h [4] of 10 ng/g. For the same molecule, the CL (Rattus norvegicus [5]) was 24.4 mL/min/kg and the solubility ([1]; read-out: solubility) was 37 µM.

`Nc1nc2c(cnn2CCN2CCC3(CC2)OCCO3)c2nn(Cc3ccccc3)c(=O)n12` gave a Ki (Adenosine receptor A2a) of 0.0087 µM, a Ratio Ki (Homo sapiens) of 162 and a solubility ([1]; read-out: solubility) of 75 µM.

With `CS(=O)(=O)N1CCN(CCn2ncc3c2nc(N)n2c(=O)n(Cc4cccc(Cl)c4)nc32)CC1` the Ki (Adenosine receptor A2a) was 0.0105 µM, the Ratio Ki (Homo sapiens) was 133 and the solubility ([1]; read-out: solubility) was 12 µM.

For `Nc1nc(-c2cccnc2)cc2nn(Cc3ccccc3)c(=O)n12`, the Ki (Adenosine receptor A2a) was 0.791 µM, the Ratio Ki (Homo sapiens) was 2 and the solubility ([1]; read-out: solubility) was 100 µM.

Work on `CN(C)CCn1ncc2c1nc(N)n1c(=O)n(Cc3ccccc3)nc21` yielded a Ki (Adenosine receptor A2a) greater than 1.5 µM and a solubility ([1]; read-out: solubility) greater than 250 µM.

In the case of `CN(C)CCn1ncc2c1nc(N)n1c(=O)n(CC3CC3)nc21`, the Ki (Adenosine receptor A2a) is reported as greater than 1.5 µM and the solubility ([1]; read-out: solubility) is reported as greater than 250 µM.

`COc1ccc(-c2cc3nn(Cc4ccccc4)c(=O)n3c(N)n2)cc1` showed a Ki (Adenosine receptor A2a) of 0.636 µM, a Ratio Ki (Homo sapiens) of 2 and a solubility ([1]; read-out: solubility) of 25 µM.

Molecule `CC(C)(C)OC(=O)N1CCN(CCn2ncc3c2nc(N)n2c(=O)n(Cc4ccccc4)nc32)CC1` has a Ki (Adenosine receptor A2a) greater than 1.3 µM and a solubility ([1]; read-out: solubility) of 100 µM.

In the case of `CC(C)(C)OC(=O)N1CCN(CCn2ncc3c2nc(N)n2c(=O)n(Cc4cccc(Cl)c4)nc32)CC1`, the Ki (Adenosine receptor A2a) is reported as 0.556 µM, the Ratio Ki (Homo sapiens) is reported as 2 and the solubility ([1]; read-out: solubility) is reported as 25 µM.

Work on `Nc1nc2c(cnn2CCN2CCOCC2)c2nn(Cc3cccc(Cl)c3)c(=O)n12` yielded a Ki (Adenosine receptor A2a) of 0.0142 µM, a Ratio Ki (Homo sapiens) of 99 and a solubility ([1]; read-out: solubility) of 25 µM.

In the case of `Nc1nc(-c2ccccc2)cc2nn(Cc3ccccc3)c(=O)n12`, the Ki (Adenosine receptor A2a) is reported as 0.001 µM and the Ratio Ki (Homo sapiens) is reported as 26.

`Nc1nc2c(cnn2CCN2CCC3(CC2)OCCO3)c2nn(Cc3cccc(Cl)c3)c(=O)n12` showed a Ki (Adenosine receptor A2a) of 0.011 µM and a Ratio Ki (Homo sapiens) of 127.

In the case of `Nc1nc2c(cnn2CCN2CCN(c3ccc(F)cc3F)CC2)c2nn(Cc3ccccc3)c(=O)n12`, the Ki (Adenosine receptor A2a) is reported as greater than 1.3 µM.
